# Target: T1, protein tyrosine phosphatase 1 B (PTP1B) (Homo sapiens, UniProt P18031)
# T1 construct: gene PTPN1
# T1 sequence (P18031 1-435): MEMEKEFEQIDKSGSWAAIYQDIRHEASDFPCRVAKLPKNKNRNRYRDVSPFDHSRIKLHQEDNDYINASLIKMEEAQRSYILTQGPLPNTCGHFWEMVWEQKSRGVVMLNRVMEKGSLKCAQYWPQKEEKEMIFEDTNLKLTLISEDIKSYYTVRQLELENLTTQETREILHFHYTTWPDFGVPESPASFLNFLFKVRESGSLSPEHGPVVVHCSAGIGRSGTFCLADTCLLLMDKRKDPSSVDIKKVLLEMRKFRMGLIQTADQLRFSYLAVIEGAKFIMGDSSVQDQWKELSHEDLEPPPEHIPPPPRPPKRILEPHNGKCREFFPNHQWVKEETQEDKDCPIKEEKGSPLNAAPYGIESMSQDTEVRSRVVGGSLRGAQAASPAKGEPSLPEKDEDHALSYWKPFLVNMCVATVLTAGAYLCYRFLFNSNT
# Test: pNPP phosphatase assay, human recombinant PTP1B, absorbance at […] nm
# Format: biochemical
row,Compound,IC50 [µM]
1,"CS[C@@]1(Cc2ccccc2)NC(=O)[C@@](Cc2ccccc2O)(SC)NC1=O [compound 3, emethacin C]",12.3
2,"CS[C@@]12CC3=CC=C[C@H](OC(C)=O)[C@H]3N1C(=O)[C@]1(SC)CC3=COC=C[C@H](OC(C)=O)[C@H]3N1C2=O [compound 5, bisdethiobis(methylsulfanyl)acetylapoaranotin]",25.7
3,"CS[C@@]12CC3=COC=C[C@H](OC(C)=O)[C@H]3N1C[C@]1(SC)CC3=COC=C[C@H](O)[C@H]3N1C2 [compound 7, alternarosin A]",24.3
